In paper PMC9679998 (ACS Chemical Biology, 2022):

How the values were obtained:
[1] = target: T1, adenosine A1 receptor (A1AR) (Homo sapiens, UniProt P30542); assay: single-point [3H]DPCPX radioligand displacement at […] ([…])
T1 construct: gene ADORA1
T1 sequence (P30542 1-326): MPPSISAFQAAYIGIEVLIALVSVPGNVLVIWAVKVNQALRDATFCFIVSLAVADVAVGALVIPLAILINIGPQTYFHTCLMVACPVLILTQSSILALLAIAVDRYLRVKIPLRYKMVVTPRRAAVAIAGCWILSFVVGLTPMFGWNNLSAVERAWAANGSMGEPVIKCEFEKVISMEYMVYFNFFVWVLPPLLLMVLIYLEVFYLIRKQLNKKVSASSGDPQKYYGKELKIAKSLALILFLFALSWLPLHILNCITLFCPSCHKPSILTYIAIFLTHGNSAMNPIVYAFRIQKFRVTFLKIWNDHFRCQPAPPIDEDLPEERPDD

[2] = target: T1, adenosine A1 receptor (A1AR); assay: [3H]DPCPX radioligand displacement on CHO-hA1AR membranes with […] h or […] h preincubation (apparent pKi […] and […]), wash-out, gel labeling, pull-down LC-MS/MS; assay type: binding

Row | Structure (SMILES) | % displacement at 1 μM [1] | Ki [2] [µM]
1 | C#CCNc1nc(SCCCNC(=O)c2ccc(S(=O)(=O)F)cc2)c(C#N)c(-c2ccc3c(c2)OCO3)c1C#N [compound 1, 1] | ~ 70 | –
2 | C#CCN(CCCSc1nc(N)c(C#N)c(-c2ccc3c(c2)OCO3)c1C#N)C(=O)c1ccc(S(=O)(=O)F)cc1 [compound 4, LUF7909] | – | 0.016
